The results in this text go back to PubChem BioAssay (NCI).

The structures appear in SMILES notation.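 96-well plates; 48 h exposure; 5 concentrations. Endpoints by linear interpolation between flanking doses. Not reached: highest tested concentration assigned. The concentration for 50% growth inhibition is given as GI50. TGI marks complete inhibition of growth.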

Holding throughout (experiment): NCI anticancer screen, dose series, 48 h
For assay [1], the system named is A498 renal.
In assay [2] the test system is CAKI-1 renal.
Assay [3] concerns COLO 205 colon.
Assay [4] deals with EKVX NSCLC.
Assay [5] deals with HCT-15 colon.
Assay [6] concerns HL-60(TB) leukemia.
Assay [7] has as its system MALME-3M melanoma.
Assay [8] concerns MCF7 breast.
Assay [9] relates to SF-268 CNS.
The subject of assay [10] is SNB-19 CNS.

As to `CNC(=O)c1ccc(N2C(=S)N(c3cnc(C#N)c(C(F)(F)F)c3)C(=O)C23CCC3)cc1F`, the GI50 in [1] is > 53.2 µM; in [2], > 100 µM; in assay [3], > 100 µM; in assay [4], > 100 µM; in [5] it was > 100 µM; in assay [6], 63.9 µM. Also, the GI50 in assay [7] is 98.3 µM; in assay [8], 99.8 µM; in assay [9] it was > 100 µM; in [10], > 100 µM. In addition, the TGI in [1], in assay [2], in [3], in [4], in [5] and in assay [6] was > 100 µM each time. Moreover, the TGI in assay [7], in assay [8], in assay [9] and in assay [10] was > 100 µM each time.

`Cc1onc(-c2ccccc2)c1C(=O)N/N=C/c1cc(Cl)cc(Cl)c1O`: the GI50 in assay [1] was 15 µM; in assay [2], 1.84 µM; in [3] it was 3.84 µM; in [5] it was 2.05 µM; in [6], 2.61 µM; in [7], 4.03 µM. Also, the GI50 in assay [8] was 3.18 µM; in [9], 3.44 µM; in assay [10] it was 4.12 µM. The TGI in assay [1] is 58.2 µM; in [2] it was 10.5 µM; in assay [3], 24.2 µM; in assay [5] it was > 100 µM; in [6], 7.32 µM; in assay [7] it was 27.4 µM. The TGI in assay [8], in assay [9] and in assay [10] was > 100 µM each time.

Regarding `CC(=O)O[C@@H]1C2CCC3C(CC[C@@]4(C)C3CC[C@@H]4C(C)N(C)C)[C@@]2(C)CC[C@@H]1NC(=O)C=C(C)C` (stereo partly drawn), the GI50 in assay [1] was 2.32 µM; in [2], 3.4 µM; in assay [3] it was 1.62 µM; in assay [4], 2.8 µM; in assay [5], 1.39 µM; in [6], 2.59 µM. Moreover, the GI50 in assay [7] was 1.91 µM; in [8], 1.67 µM; in [9] it was 1.56 µM; in assay [10], 6.89 µM. Also, the TGI was found to be 9.78 µM in assay [1]; 11.3 µM in [2]; 3.1 µM in [3]; 16.6 µM in [4]; 3.45 µM in assay [5]; 6.19 µM in [6]. Besides, the TGI came out at 3.89 µM in [7], 4.38 µM in assay [8], 3.31 µM in assay [9] and 18.7 µM in [10].

As for `O=C(O)CSc1n[nH]c(=O)[nH]c1=O`, the TGI in assay [1], in assay [2], in assay [3], in assay [4], in assay [5] and in [6] was > 100 µM in each case. The TGI in assay [7], in [8], in assay [9] and in [10] was > 100 µM each time.

For the molecule `CCCCCCCCCCCCCCCC1=NCC[N+]1(CCO)CCO`, the GI50 in [1] is 7.79 µM; in assay [2] it was 3.58 µM; in assay [3], 1.87 µM; in assay [4], 10.2 µM; in assay [5], 1.94 µM; in [6], 0.442 µM. Further, the GI50 is 12.2 µM in [7], 3.46 µM in assay [8], 1.71 µM in [9] and 3.8 µM in [10]. For the same molecule, the TGI in assay [1] was 21.6 µM; in [2], 14.6 µM; in assay [3], 3.68 µM; in [4] it was 32.4 µM; in assay [5], 4.48 µM; in assay [6], 2.61 µM. The TGI was 28 µM in [7], 14 µM in assay [8], 3.46 µM in assay [9] and 15.9 µM in assay [10].

With `NS(=O)(=O)OC[C@H]1C[C@@H](Nc2ccnc3cc(-c4cccc(SC(F)(F)F)c4)nn23)[C@H](O)[C@@H]1O`, the GI50 in assay [1] was 0.013 µM; in assay [2], 0.181 µM; in assay [3], 0.0229 µM; in [4], 0.028 µM; in assay [5], 0.139 µM; in assay [6], 0.0332 µM. Further, the GI50 is 0.0275 µM in [7], 0.0214 µM in assay [8], 0.0265 µM in assay [9] and 0.0301 µM in assay [10]. Also, the TGI came to 0.0262 µM in assay [1]; 0.477 µM in assay [2]; 0.0525 µM in assay [3]; 0.104 µM in [4]; 0.449 µM in assay [5]; 0.15 µM in assay [6]. The TGI in assay [7] came to 0.0652 µM; in assay [8] it was 0.173 µM; in assay [9] it was 0.0711 µM; in [10], 0.0902 µM.

Turning to `O=C1NC(=C(Cl)Cl)/C(=N/S(=O)(=O)N2CCCCC2)N1`, the GI50 is 12.4 µM in assay [1]; 1.77 µM in assay [2]; 2.01 µM in assay [3]; 1.82 µM in assay [5]; 1.86 µM in [6]; 1.82 µM in assay [7]. Besides, the figures for the GI50 in [8], in [9] and in [10] were 2.87 µM, 2.43 µM and 2.38 µM, respectively. In addition, the TGI stood at 25.4 µM in assay [1]; 3.26 µM in assay [2]; 3.88 µM in assay [3]; 3.91 µM in assay [5]; 4.52 µM in assay [6]; 3.49 µM in assay [7]. Besides, the TGI is > 100 µM in assay [8], 6.53 µM in assay [9] and 5.34 µM in assay [10].

Consider `CC(C)C[C@H](NC(=O)CNC(=O)c1cc(Cl)ccc1Cl)B(O)O`, for which the GI50 was < 0.0158 µM in [1]; < 0.0165 µM in assay [2]; 0.0432 µM in assay [3]; 0.0272 µM in [5]; < 0.0167 µM in [6]; < 0.0115 µM in assay [7]. The GI50 in assay [8] was < 0.0196 µM; in assay [9], 0.0343 µM; in assay [10], 0.273 µM. The TGI is 0.0336 µM in assay [1]; 0.0676 µM in assay [2]; > 38.5 µM in assay [3]; 0.212 µM in assay [6]; 0.035 µM in [7]; > 52.4 µM in assay [8]. The values for the TGI in assay [9] and in [10] were 0.22 µM and > 87.8 µM, respectively.
